We go through 9 molecules from PubChem BioAssay (NCI).

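Grown in 96-well plates, cells were treated for 48 hours with each compound at five concentrations. Insufficient inhibition: endpoint recorded as highest concentration tested. At the GI50, growth is halved. TGI is the concentration that stops growth completely.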 A value given as a limit tells only on which side of the number the result lay.

Holding throughout (test): NCI anticancer screen, dose series, 48 h
The subject of assay [1] is MOLT-4 leukemia.
Assay [2] has as its system HL-60(TB) leukemia.
The subject of assay [3] is OVCAR-3 ovarian.
The test system of assay [4] is SK-MEL-2 melanoma.
For assay [5], the system named is SN12C renal.
Assay [6] has as its system PC-3 prostate.
Assay [7] relates to ACHN renal.
In assay [8] the test system is BT-549 breast.
The test system of assay [9] is RXF 393 renal.
The subject of assay [10] is MDA-MB-231 breast.

As for `COC(C(=O)[C@@H](O)[C@@H](C)O)[C@@H]1Cc2cc3cc(O[C@H]4C[C@@H](O[C@H]5C[C@@H](O)[C@H](O)C(C)O5)[C@H](O)C(C)O4)c(C)c(O)c3c(O)c2C(=O)[C@H]1O[C@H]1C[C@@H](O[C@H]2C[C@@H](O[C@H]3C[C@@H](O)[C@H](OC)C(C)O3)[C@@H](O)C(C)O2)[C@H](O)C(C)O1` (stereo partly specified), the GI50 in [1] is 0.0231 µM; in assay [2] it was 0.0651 µM; in assay [3], 0.0212 µM; in [6] it was 0.0317 µM; in assay [7] it was 0.0831 µM; in [8], 0.0219 µM. In addition, the GI50 in [9] is 0.034 µM; in [10], 0.0691 µM. For the same molecule, the TGI was 0.219 µM in [1]; 0.767 µM in assay [2]; 1.04 µM in assay [3]; 0.0392 µM in assay [4]; more than 33.3 µM in assay [5]; more than 33.3 µM in assay [6]. Besides, the TGI in assay [7] is more than 33.3 µM; in assay [8] it was 0.258 µM; in [9] it was 0.139 µM; in assay [10], more than 33.3 µM.

`COCOc1ccc(C2(O)Oc3cc(OCOC)ccc3C2C)c(O)c1` (stereo unspecified): the TGI in [1] was found to be 60.8 µM; in assay [2], 44 µM; in assay [3], 26.2 µM; in assay [4], 32.7 µM; in assay [5], 30 µM; in [6] it was 26.3 µM. The TGI was 26.7 µM in assay [7], 28.2 µM in [8], 31.1 µM in [9] and 25.3 µM in assay [10].

Consider `O=C(NO)c1ccc(CN(c2cnccn2)c2cnccn2)cc1`, for which the GI50 is 17.7 µM in assay [1]; 26.6 µM in assay [2]; 11.7 µM in [3]; 12.2 µM in assay [4]; 18.3 µM in assay [5]; 11.7 µM in assay [6]. Besides, the GI50 in assay [7] was 12.9 µM; in [8], 13.8 µM; in assay [9], 11.5 µM; in assay [10], 22.3 µM. The TGI in assay [1] is more than 100 µM; in assay [2] it was 82.7 µM; in assay [3] it was 30 µM; in assay [4], 27 µM; in [5], 42.5 µM; in assay [6], 31.4 µM. Further, the TGI in [7] worked out at 27.4 µM; in assay [8] it was 29.9 µM; in assay [9] it was 25.1 µM; in assay [10] it was 63.4 µM.

As to `O=C1CSC(c2ccc(-c3nc4ccccc4s3)cc2)=N1`, the GI50 is 18.4 µM in assay [2]; 16 µM in assay [3]; 40.9 µM in [4]; 36.9 µM in [5]; more than 100 µM in [6]; 55.6 µM in assay [7]. The figures for the GI50 in assay [8], in assay [9] and in assay [10] were 36.2 µM, 28.9 µM and 24.1 µM, respectively. Besides, the TGI in assay [2] is more than 100 µM; in assay [3], 55 µM; in [4] it was more than 100 µM; in [5], 99.4 µM; in [6], more than 100 µM; in assay [7], more than 100 µM. Further, the TGI in assay [8] is 76.8 µM; in assay [9], more than 100 µM; in [10], more than 100 µM.

For the molecule `COc1ccc(Cc2cnc(NC(=O)c3ccc4c(c3)OCCO4)s2)cc1`, the GI50 was 0.0504 µM in [1]; 0.0409 µM in assay [2]; 0.0221 µM in assay [3]; 0.0545 µM in [4]; 0.0556 µM in assay [5]; 0.0303 µM in assay [6]. The GI50 is 0.0553 µM in assay [7], 0.0357 µM in assay [8] and 0.0379 µM in [10]. In addition, the TGI in [1] is more than 100 µM; in assay [2], more than 100 µM; in assay [3] it was 0.0658 µM; in [4], more than 78.4 µM; in [5], more than 100 µM; in assay [6] it was more than 100 µM. In addition, the results for the TGI in assay [7], in assay [8] and in assay [10] were more than 100 µM, more than 49.5 µM and 22.6 µM, respectively.

For the molecule `CCN(CC)c1cc2oc3cc(N)cc(=N)c-3nc2cc1C`, the GI50 in assay [3] is 1.78 µM; in assay [4], 2.01 µM; in assay [5] it was 1.94 µM; in assay [6], 1.73 µM; in assay [7], 1.69 µM; in [8], 10.6 µM. The GI50 is 13.1 µM in assay [9] and 6.04 µM in [10]. Moreover, the TGI in assay [3] was 5.63 µM; in [4], 4.69 µM; in [5], 6.13 µM; in [6] it was more than 100 µM; in [7], more than 100 µM; in assay [8] it was 27.4 µM. Moreover, the figures for the TGI in assay [9] and in [10] were 26.9 µM and more than 100 µM, respectively.

Turning to `Cc1ccc(Nc2nnc(-c3ccc4c(c3)OCO4)o2)c(C)c1`, the TGI in assay [1], in [3], in assay [4], in [5], in assay [6] and in [7] was more than 100 µM in each case. The TGI in [8], in assay [9] and in assay [10] was more than 100 µM each time.

As for `O=C(CSC(c1ccccc1)c1ccccc1)N/N=C/c1ccco1`, the GI50 in assay [1] was 1.64 µM; in assay [3], 1.92 µM; in [4], 1.4 µM; in [5], 17.2 µM; in [6], 2.03 µM; in [7] it was 1.82 µM. Also, the figures for the GI50 in assay [8], in assay [9] and in [10] were 1.69 µM, 1.25 µM and 1.35 µM, respectively. Further, the TGI in assay [1] is 4.48 µM; in [3], 3.49 µM; in assay [4] it was 3.76 µM; in assay [5] it was 35.7 µM; in assay [6] it was 9 µM; in assay [7], 3.62 µM. Besides, the TGI in assay [8] is 2.78 µM; in assay [9], 3.32 µM; in assay [10], 2.87 µM.

Consider `O=C(O)C12CC3(C(=O)O)CC(C(=O)O)(CC(C(=O)O)(C1)C3=O)C2=O`, for which the TGI in assay [1], in [3], in assay [4], in [5], in [6] and in assay [7] was more than 100 µM in each case. The TGI in assay [8], in [9] and in assay [10] was more than 100 µM throughout.
